Reference: patent US20190192697A1, “CHEMICAL PROBES OF LYSYL OXIDASK-LIKE 2 AND USES THEREOF” (PHARMAKEA, INC., priority 2016, published 2019)
Structures can show the parent of a compound that is named as a salt.

Legend:
LOXL2 [1] = molecular target: T1, LOXL2 (Homo sapiens, UniProt Q9Y4K0); assay: Western-based quantification of free LOXL2 captured with biotinylated LOXL2 inhibitor (Compound 1-1); format: binding; details: pre-incubation with 1-13a 1-2 hrs at 37° C., capture with Compound 1-1
T1 sequence (Q9Y4K0 26-774): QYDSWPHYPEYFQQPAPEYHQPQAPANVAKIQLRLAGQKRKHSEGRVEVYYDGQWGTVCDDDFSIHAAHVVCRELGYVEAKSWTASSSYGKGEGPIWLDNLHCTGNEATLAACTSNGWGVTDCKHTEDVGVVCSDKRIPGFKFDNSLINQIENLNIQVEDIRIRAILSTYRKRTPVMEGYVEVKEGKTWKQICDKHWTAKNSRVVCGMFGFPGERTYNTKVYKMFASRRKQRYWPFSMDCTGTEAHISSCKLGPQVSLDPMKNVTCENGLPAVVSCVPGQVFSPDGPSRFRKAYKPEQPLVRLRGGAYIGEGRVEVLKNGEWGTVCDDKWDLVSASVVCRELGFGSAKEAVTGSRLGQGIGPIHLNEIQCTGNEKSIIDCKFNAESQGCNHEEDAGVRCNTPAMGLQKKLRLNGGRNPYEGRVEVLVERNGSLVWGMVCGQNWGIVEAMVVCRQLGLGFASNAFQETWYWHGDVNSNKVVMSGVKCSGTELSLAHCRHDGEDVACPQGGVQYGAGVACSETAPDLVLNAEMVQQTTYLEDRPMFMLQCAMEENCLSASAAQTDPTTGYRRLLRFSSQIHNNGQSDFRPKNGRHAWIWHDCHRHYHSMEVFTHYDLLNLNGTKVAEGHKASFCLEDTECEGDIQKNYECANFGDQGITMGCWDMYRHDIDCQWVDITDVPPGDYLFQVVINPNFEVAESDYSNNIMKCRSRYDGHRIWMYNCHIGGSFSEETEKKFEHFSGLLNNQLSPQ
Description: To quantify LOXL2 using a Western-based assay, a suitable amount of the LOXL2 inhibitor 1-13a, such as 10 or DMSO was pre-incubated with a suitable amount of LOXL2, such as 1 ng, 10 ng, or 100 ng, for a suitable amount of time at an appropriate temperature, such as 1-2 hrs at 37° C. Then an appropriate amount of the biotinylated labeled LOXL2 inhibitor (Compound 1-1), such as 5, was added and was allowed to incubate with the LOXL2 for a suitable amount of time at an appropriate temperature, such as 1 hr at 37° C. Then the biotinylated labeled LOXL2 inhibitor (Compound 1-1)/LOXL2 complex was isolated with Streptavidin coated magnetic beads. After incubation with the streptavidin magnetic beads for an appropriate amount of time, a magnet (for example, DynaMag™-2 Magnet) was used to capture the biotinylated labeled LOXL2 inhibitor (Compound 1-1)/LOXL2 bead bound complex and the supernatant was removed. […]
A Western Blot is then performed with an anti-LOXL2 antibody to quantify the amount of LOXL2 bound to the biotinylated LOXL2 inhibitor (Compound 1-1).

LOXL2 [2] = molecular target: T1, LOXL2; assay: Human LOXL2 amine oxidase activity assay (Amplex Red); format: biochemical; design: expressed in transfected cells; host or cells: CHO cells stably expressing human LOXL2; 10-20x concentrated conditioned media; details: concentrated conditioned media from CHO cells expressing human LOXL2; 2 h at 37° C. pre-incubation
Description: LOXL2 amine oxidase activity is evaluated by measuring Amplex Red fluorescence using 10-20× concentrated conditioned media from CHO cells stably expressing human LOXL2. To assay for amine oxidase activity, 10 μL of the concentrated conditioned media is incubated with 2 μL of test compound in DMSO and 73 μL Assay Buffer (50 mM Borate Buffer, pH8) for 2 h at 37° C. After the 2 h incubation, 5 μL of 10 mM 1,5-diaminopentane (DAP) diluted in Assay Buffer and 10 μL of Amplex Red Mix (8.5 μL Assay Buffer+0.5 μL of 10 mM Amplex Red+1 μL of 500 U/mL Horseradish Peroxidase) are added and the plate mixed and immediately placed on the FlexStaion for fluorescence measurements. Fluorescence is read in kinetic mode every 2 min for 1 hour at excitation=544 nm and emission=590 nm. The amine oxidase activity is calculated from the slope of the linear portion of the curve.

SMILES: NCc1cc(Oc2cccc(C(=O)N3C[C@@H](O)[C@H](F)C3)c2)nc(C(F)(F)F)c1 [Compound 1-13a, (R,R)-trans-(3-((4-(Aminomethyl)-6-(trifluoromethyl)pyridin-2-yl)oxy)phenyl)(3-fluoro-4-hydroxypyrrolidin-1-yl)methanone hydrochloride]
- reduction of unbound/free LOXL2 captured by the biotinylated LOXL2 inhibitor (LOXL2 [1]): 70-100%
- IC50 (LOXL2 [2]): < 0.3 µM
